Results from ChEMBL document CHEMBL5143510, “Structure modification and biological evaluation of indole-chalcone derivatives as anti-tumor agents through dual targeting tubulin and TrxR” (Eur J Med Chem, 2022).
Calls of active or inactive are those of the source. No cut-off for these calls is given here.

What was measured:
MCF7 = assay: Antiproliferative activity against human MCF7 cells assessed as reduction in cell viability incubated for 48 hrs by MTT assay; type: functional, cell-based; conditions: MCF7, 48 h
A2780 = assay: Antiproliferative activity against human A2780 cells assessed as reduction in cell viability incubated for 48 hrs by MTT assay; type: functional, cell-based; conditions: A2780, 48 h
MHCC97H [1] = assay: Induction of morphological changes in human MHCC97H cells assessed as cell rounding at 5 to 50 nM incubated for 48 hrs by phase contrast microscopic analysis; type: functional, cell-based; conditions: dose 5-50 nM
HCT-8 = assay: Antiproliferative activity against human HCT-8 cells assessed as reduction in cell viability incubated for 48 hrs by MTT assay; type: functional, cell-based; conditions: HCT-8, 48 h
Tubulin (Homo sapiens) [2] = biological target: T1, Tubulin (Homo sapiens) (UniProt P68371+Q9H4B7+P0DPH7+P68366+Q13509+Q71U36+P04350+Q3ZCM7+P07437+P68363+Q9BQE3+Q6PEY2+Q13885+Q9BVA1+Q9BUF5); assay: Disruption of microtubule network in human MHCC97H cells assessed as dotted morphology at 5 to 50 nM incubated for 24 hrs by Hoechst 33342 staining based confocal microscopy; type: cell-based; conditions: dose 5-50 nM
[3] = Cytotoxicity against human L02 cells assessed as reduction in cell viability incubated for 48 hrs by MTT assay; type: toxicity, cell-based
[4] = Cytotoxicity against human HLF cells assessed as reduction in cell viability incubated for 48 hrs by MTT assay; type: toxicity, cell-based
[5] = Selectivity ratio, ratio of IC50 for cytotoxicity against human HUVEC cells to IC50 for antiproliferative activity against human MHCC97H cells; type: toxicity, cell-based; conditions: HUVEC cells versus MHCC97H cells, read-out: Ratio IC50
[6] = Selectivity ratio, ratio of IC50 for cytotoxicity against human MCF-10A cells to IC50 for antiproliferative activity against human MHCC97H cells; type: toxicity, cell-based; conditions: MCF-10A cells versus MHCC97H cells, read-out: Ratio IC50
[7] = Antiproliferative activity against paclitaxel resistant human A2780/PTX cells assessed as reduction in cell viability incubated for 48 hrs by MTT assay; type: functional, cell-based
MHCC97H [8] = assay: Induction of morphological changes in human MHCC97H cells assessed as cell shrinkage at 5 to 50 nM incubated for 48 hrs by phase contrast microscopic analysis; type: functional, cell-based; conditions: dose 5-50 nM
MHCC97H [9] = assay: Induction of morphological changes in human MHCC97H cells assessed as membrane blebbing at 5 to 50 nM incubated for 48 hrs by phase contrast microscopic analysis; type: functional, cell-based; conditions: dose 5-50 nM
HUVEC = assay: Induction of morphological changes in human HUVEC cells assessed as loss of cell interactions at 50 nM incubated for 48 hrs by phase contrast microscopic analysis; type: toxicity, cell-based; conditions: 0.05 µM
Tubulin (Homo sapiens) [10] = biological target: T1, Tubulin (Homo sapiens); assay: Disruption of microtubule network in human MHCC97H cells assessed as punctate morphology at 5 to 50 nM incubated for 24 hrs by Hoechst 33342 staining based confocal microscopy; type: cell-based; conditions: dose 5-50 nM
Tubulin (Homo sapiens) [11] = biological target: T1, Tubulin (Homo sapiens); assay: Inhibition of colchicine binding to tubulin (unknown origin) at 0.625 uM by competitive binding assay relative to control; type: protein-complex assay
Tubulin (Homo sapiens) [12] = biological target: T1, Tubulin (Homo sapiens); assay: Inhibition of colchicine binding to tubulin (unknown origin) at 2.50 uM by competitive binding assay relative to control; type: protein-complex assay; conditions: dose 2.5 µM
Tubulin (Homo sapiens) [13] = biological target: T1, Tubulin (Homo sapiens); assay: Inhibition of colchicine binding to tubulin (unknown origin) at 5.0 uM by competitive binding assay relative to control; type: protein-complex assay
Tubulin (Homo sapiens) [14] = biological target: T1, Tubulin (Homo sapiens); assay: Inhibition of colchicine binding to tubulin (unknown origin) at 10 uM by competitive binding assay relative to control; type: protein-complex assay
Tubulin = assay: Inhibition of colchicine binding to tubulin (unknown origin) by competitive binding assay; type: protein-complex assay, Homo sapiens
Tubulin (Homo sapiens) [15] = biological target: T1, Tubulin (Homo sapiens); assay: Induction of microtubule disruption in human MHCC97H cells assessed as occurence of cell shrinkage at 10 nM measured after 8 hrs by immunofluorescence based confocal microscopic analysis
MHCC97H [16] = assay: Induction of cell cycle arrest in human MHCC97H cells assessed as decrease in accumulation of cells at G1 phase at 5 to 50 nM measured after 48 hrs by propidium iodide staining based flow cytometry; type: functional; conditions: dose 5-50 nM
Homo sapiens = species: Homo sapiens; assay: Irreversible inhibition of TrxR (unknown origin) using DTNB as substrate at 2.5 uM incubated for 2 hrs in presence of NADPH followed by substrate addition ultrafiltration based microplate reader analysis relative to control
MHCC97H [17] = assay: Downregulation of TrxR in human MHCC97H cells at 5 to 50 nM incubated for 48 hrs by Western blot analysis; type: functional, cell-based; conditions: dose 5-50 nM
MHCC97H [18] = assay: Induction of oxidative stress in human MHCC97H cells assessed as increase in superoxide anion level at 5 to 50 nM incubated for 4 hrs by DHE based fluorescence microscopy; type: functional, cell-based; conditions: dose 5-50 nM
MHCC97H [19] = assay: Induction of apoptosis in human MHCC97H cells assessed as decrease in MMP level incubated for 24 hrs by JC-1 staining based flow cytometry; type: functional, cell-based; conditions: dose 5-50 nM, DDE = dose-dependent effect
MHCC97H [20] = assay: Induction of apoptosis in human MHCC97H cells assessed as decrease in MMP level incubated for 24 hrs by JC-1 staining based fluorescence microscopy; type: functional, cell-based; conditions: dose 5-50 nM, DDE = dose-dependent effect
MHCC97H [21] = assay: Induction of apoptosis in human MHCC97H cells assessed as nucleus shrinkage at 5 to 50 nM incubated for 24 hrs by Hoechst 33342 staining based fluorescence microscopy; type: functional, cell-based; conditions: dose 5-50 nM
MHCC97H [22] = assay: Induction of apoptosis in human MHCC97H cells assessed as increase in total apoptotic cells at 5 to 50 nM by Annexin V-FITC/PI staining based flow cytometry method; type: functional, cell-based; conditions: dose 5-50 nM, time 24-48 hrs, TDE = time-dependent effect
MHCC97H [23] = assay: Induction of apoptosis in human MHCC97H cells assessed as downregulation of Bcl-2 expression at 5 to 50 nM measured after 24 to 48 hrs by Western blot analysis; type: functional, cell-based; conditions: dose 5-50 nM, time 24-48 hrs
MHCC97H [24] = assay: Induction of apoptosis in human MHCC97H cells assessed as downregulation of Bcl-xl expression at 5 to 50 nM measured after 24 to 48 hrs by Western blot analysis; type: functional, cell-based; conditions: dose 5-50 nM, time 24-48 hrs
MHCC97H [25] = assay: Antitumor activity against human MHCC97H cells xenografted in BALB/c mouse assessed as tumor growth inhibition at 30 mg/kg, ip administered every other day for 30 days; type: functional; conditions: 720 h, time 30 day, read-out: TGI
MHCC97H [26] = assay: Antitumor activity against human MHCC97H cells xenografted in BALB/c mouse assessed as tumor weight at 30 mg/kg, ip administered every other day for 30 days; type: functional; conditions: time 30 day
Tubulin (Homo sapiens) [27] = biological target: T1, Tubulin (Homo sapiens); assay: Binding affinity to tubulin (unknown origin) assessed as reduction in peak area in the filtrate at 30 uM incubated for 1 hr by HPLC analysis; type: protein-complex assay
Tubulin (Homo sapiens) [28] = biological target: T1, Tubulin (Homo sapiens); assay: Induction of microtubule disruption in human MHCC97H cells assessed as occurence of cell shrinkage at 10 nM incubated for 8 hrs followed by compound washout and measured after 24 hrs by immunofluorescence based confocal microscopic analysis

- IC50 (MCF7): 0.035 µM
- IC50 (A2780): 0.018 µM
- IC50 (HCT-8): 0.029 µM
- Activity (Tubulin (Homo sapiens) [2]): Active
- Activity (Tubulin (Homo sapiens) [10]): Active
- inhibition (Tubulin (Homo sapiens) [11]): 45%
- inhibition (Tubulin (Homo sapiens) [12]): 46.7%
- inhibition (Tubulin (Homo sapiens) [13]): 86.8%
- inhibition (Tubulin (Homo sapiens) [14]): 94.4%
- IC50 (Tubulin): 1.3 µM
- Activity (Tubulin (Homo sapiens) [15]): Active
- inhibition (Homo sapiens): 58.4%
- Activity (Tubulin (Homo sapiens) [27]): Active
- Activity (Tubulin (Homo sapiens) [28]): Active
SMILES: COc1ccc2c(/C=C(\C)C(=O)c3cc(OC)c(OC)c([Se]C)c3)c[nH]c2c1
- Activity (MHCC97H [1]): Active
- IC50 at 48 h [3]: 0.398 µM
- IC50 at 48 h [4]: 2.37 µM
- selectivity ratio [5]: 9.33
- selectivity ratio [6]: 121
- IC50 [7]: 0.02 µM
- Activity (MHCC97H [8]): Active
- Activity (MHCC97H [9]): Active
- Activity (HUVEC): Toxic
- Activity (MHCC97H [16]): Active
- Activity (MHCC97H [17]): Active
- Activity (MHCC97H [18]): Active
- Activity (MHCC97H [19]): Dde
- Activity (MHCC97H [20]): Dde
- Activity (MHCC97H [21]): Active
- Activity (MHCC97H [22]): Tde
- Activity (MHCC97H [23]): Active
- Activity (MHCC97H [24]): Active
- inhibition in vivo at 30 mg/kg (MHCC97H [25]): 75.4%
- Activity (MHCC97H [26]): 0.453 g
